Marks after values point to notes of the source that are not given here.
Experiments:
[1] = test system: otic swelling caused by mixed inflammatory solution of croton oil; assay: Otic swelling caused by mixed inflammatory solution of croton oil; type: in vivo, mice; settings: 20 mg/kg once a day for 5 days
Method: 1. Impact on Otic Swelling Caused by Mixed Inflammatory Solution of Croton Oil. […] The treatments were administered to the mice once a day for 5 days. […] Four hours after inflammation, the mice were killed with a disjointed cervical vertebra method. The two ears were cut along the auricle baseline. Equal parts of the two ears (by area) were cut off and weighed on weighing scales to test twisting force. The degree of swelling/inflammation was obtained by subtracting the weight of the right ear from the weight of the left ear. The degrees of swelling between the control (contrast) groups and the test groups were analyzed statistically and the swelling inhibition rate was obtained.

tampon granuloma = assay: Tampon granuloma of rats; type: in vivo; settings: 20 mg/kg once a day for 7 days
Method: Impact on Tampon Granuloma of Rats The same experimental materials and animals as in Experimental Example 2 were used. However, sixty (60) 150-180 g male rats were used. Under ether anesthesia and normal disinfection, two±1 mg sterilized tampons were embedded under the inguinal skins on either side of the bodies. […] The treatments were administered into the rats' stomachs once a day for 7 days. On the eighth day, the rats were killed via a disjointed cervical vertebra method. The tampons were removed and placed in a 60° C. oven for 12 hours and then weighed.

[2] = test system: prostate hyperplasia caused by testosterone propionate; assay: Prostate hyperplasia caused by testosterone propionate in rats, comparison of anti-prostate hyperplasia medicaments (Experimental Example 1); type: in vivo, Wistar rats; settings: for Prostate Gland Factors, Sum of three lobes (anterior, head and posterior lobes) / Inhibition rate % (Anterior lobe) / Inhibition rate % (Sum of three lobes): 30 days; for Inhibition rate % (Anterior lobe) / Inhibition rate % (Sum of three lobes): vs contrast group; for Prostate Gland Factors, Anterior lobe: once a day for 30 days, castrated rats + testosterone propionate 5 mg/Kg
Method: The effect of anti-prostate hyperplasia medicaments and the composition of the present invention in rats on prostate hyperplasia caused by testosterone propionate was evaluated as discussed below.
• 1. PROSCAR (5-α-reductase inhibitor): tablets, produced by Merck & Co., Inc., (UK) Co., prepared as 0.5 mg/ml medicament. • 2. Saw Palmetto tablets, produced by Zhejiang Conba Pharmaceutical Co. Ltd., prepared with distilled water into […]. • 3. Longbishu Capsules: produced by SHIJIAZHUAN KEDI Pharmaceutical Co., Ltd., prepared with distilled water into 0.18 g/ml medical liquid. • 4. The final extract of Example 9, prepared into […] medical liquid. • 5. Estradiol Benzoate injection • 6. Testosterone propionate injection Test Method and Results
Six 130 g-150 g male Wistar rats were anaesthetized with ether. The testes of each rat were removed under axenic conditions, and the test rats were bred for a week after operation. The rats were divided at random into 6 groups, with 6 rats in each group. All groups of animals were hyped each day with 5 mg/Kg testosterone propionate dissolved in prepared peanut oil. The control (contrast) groups were administered a physiological salt solution. The test groups were administered a treatment of 5 mg/Kg PROSCAR, 5 g/Kg Saw Palmetto, 1.8 g/Kg longbishu, and 6 g/Kg of the final extract obtained in Example 9 The treatment took the form of a1 ml/100 g medicament; for hypodermic injections of 50 μg/Kg estradiol benzoate, the volume was […], administered once a day for 30 days. 24 hours after the final treatment, all the rats were killed. The whole prostate glands were anatomized and placed in formalin. Extraneous fat was cut away from the prostate glands and the liquid on the surface was dried with filter papers. The prostate glands were then weighed with a tissue balance to calculate the weight.

[3] = test system: testosterone propionate-induced prostate hyperplasia; assay: Testosterone propionate-induced prostate hyperplasia in rats (Experimental Example 5); type: in vivo, Wistar rats
Method: Impact on Testosterone Propionate-Induced Prostate Hyperplasia in Rats
The same experimental materials and animals as in Experimental Example 2 were used. However, fifty (50) 130-150 g male Wistar rats were used. Under ether anesthesia and in sterilized surroundings, both testes of each rat were removed. The rats were then bred for a week after the operation. Next, the rats were randomly divided into 5 groups of 10 rats each. Each group of animals were hyped with 5 mg/kg testosterone propionate dissolved in prepared oil once a day. During the same time period, each group was also given one of the treatments: the control (contrast) group was administered a physiological saline solution; three test groups were administered a dose (1.5, 3 and 6 g/kg) of the extract from Example 9 in a preparation of 1 m/100 g. The positive control (contrast) group was hyped with 50 μg/kg estradiol benzoate in a volume of 0.05 ml/100 g, once a day for 30 days. After the last treatment, the rats were killed and their whole prostate glands were anatomized. The prostate glands were placed in formalin. All the fat was cut away from the prostate glands after they were removed from the formalin. The remaining formalin on the prostate gland surface was dried with filter papers. The prostate glands were then placed in 70% ethanol and fixed for 24 hours. Next, the prostate glands were removed from the ethanol and placed on filter papers. The anterior, head and posterior lobes of the prostate glands were separated and weighed on a weighing scale to test twisting force. The transverse diameter, diameter and height of the anterior lobes of the prostate glands were measured with a two-foot vernier. The volume of the anterior lobe of a prostate gland was obtained by multiplying the values of the three measurements. Finally, the anterior lobes were examined with tectology, and the diameter of the prostate gland cavity and the height of the glandular epithelium cells were measured. Non-pairing t-examinations among the groups were conducted for all indexes. The values of the treatment groups were compared to the control (contrast) groups in order to determine the average difference.

[4] = 50 μg/kg once a day for 30 days
[5] = estradiol benzoate 50 μg/kg, 30 days, vs control
[6] = dose 50 g/Kg (so in the source), hypodermic

CC(=O)OCC(=O)[C@@]1(O)CC[C@H]2[C@@H]3CCC4=CC(=O)CC[C@]4(C)[C@H]3[C@@H](O)C[C@@]21C [Hydrocortisone, Hydrocortisone acetate]
Inhabitation rate % [1]: 46.77% | Swelling degree (mg) (x ± SD) ([1]; 4 hours after croton oil): 9.50 ± 2.93 mg | Inhibition rate % (tampon granuloma): 42.43% | Weight of tampon granuloma (mg x ± SD) (tampon granuloma): 26.45 ± 2.61 mg

CC(C)(C)NC(=O)[C@H]1CC[C@H]2[C@@H]3CC[C@H]4NC(=O)C=C[C@]4(C)[C@H]3CC[C@]12C [PROSCAR]
Prostate Gland Factors, Sum of three lobes (anterior, head and posterior lobes) ([2]; dose 5 mg/Kg): 453.4 ± 59.1 mg/100 g | Inhibition rate % (Anterior lobe) ([2]; dose 5 mg/Kg): 42.3** % | Inhibition rate % (Sum of three lobes) ([2]; dose 5 mg/Kg): 37.1** % | Prostate Gland Factors, Anterior lobe ([2]; dose 5 mg/Kg): 164.2 ± 31.4 mg/100 g

C[C@]12CC[C@@H]3c4ccc(OC(=O)c5ccccc5)cc4CC[C@H]3[C@@H]1CC[C@@H]2O [estradiol benzoate, Estradiol Benzoate]
Volume of anterior lobe (cm3) [3, 4]: 0.42 ± 0.12 cm3 | rat prostate factors, Anterior lobe [3, 4]: 127.2 ± 23.4 mg/100 g | rat prostate factors, Head lobe [3, 4]: 51.2 ± 10.7 mg/100 g | hyperplasia of the diameter of the glandular cavity of prostate anterior and head lobes (histology) ([3]; 30 days after treatment, microscopic examination): inhibit hyperplasia | inhibition rate for head lobes (weight) [3, 5]: 30.2% | inhibition rate for posterior lobe (weight) [3, 5]: 12.5% | inhibition rate for prostate anterior lobe (weight) [3, 5]: 35.3% | inhibition rate, volume of prostate anterior lobe [3, 5]: 45.5% | Prostate Gland Factors, Sum of three lobes (anterior, head and posterior lobes) [2, 6]: 585.3 ± 80.5 mg/100 g | Inhibition rate % (Anterior lobe) [2, 6]: 36.7** % | Inhibition rate % (Sum of three lobes) [2, 6]: 18.8** % | Prostate Gland Factors, Anterior lobe [2, 6]: 180.1 ± 55.8 mg/100 g

— patent publication US7556828B2, “Pharmaceutical composition for treatment of BPH and preparation thereof” (priority 2003, dated 2009)
